Source: patent US11420975B2, “Substituted imidazo[1,5-a]pyrazines as Bruton's tyrosine kinase inhibitors” (TRANSTHERA SCIENCES (NANJING), INC., priority 2018, dated 2022)

Key:
[1] = molecular target: BTK(wt) (Homo sapiens (Human), UniProt Q06187); test: In vitro inhibitory activity against BTK(wt) enzyme (33P-ATP filter binding); format: biochemical; settings: class symbols
Procedure: (§1) The substrate solution was prepared by adding the substrate poly(Glu, Tyr) sodium salt (Sigma Aldrich, St. Louis, Mo.) to the substrate reaction buffer (20 mM Hepes (pH 7.5), 10 mM MgCl2, 1 mM EGTA, 0.02% Brij35, 0.02 mg/mL BSA, 0.1 mM Na3VO4, 2 mM DTT and 1% DMSO) (final substrate concentration in the reaction solution was 0.2 μM). Test compound was formulated into stock solutions at 10 mM concentration with 100% DMSO, and 3-fold serial dilution for 10 doses was performed in a 384-well cyclic olefin copolymer LDV microplate. […] Test compound in 100% DMSO was then added to the kinase reaction mixture by acoustic liquid transfer technology (Echo 550; nanoliter range) (Labcyte Inc, Sunnyvale, Calif.) and incubated for 20 min at room temperature. 33P-ATP (specific activity 10 μCi/μL) was added to the reaction mixture to initiate the reaction, followed by incubation at room temperature for 2 h. A small portion of the reaction mixture was dropped onto P-81 ion exchange filter paper (Whatman). After washing the unbound phosphate from the filter paper with 0.75% phosphate buffer (three times) and drying, the remaining radioactivity on the filter paper was measured. The kinase activity was expressed as the percentage of the remaining kinase activity in the test sample to the kinase activity in the vehicle (dimethyl sulfoxide) blank control. IC50 values were calculated by curve fitting the data obtained using Prism (GraphPad Software).

[2] = molecular target: BTK(C481S) (Homo sapiens (Human), UniProt Q06187, C481S); test: In vitro inhibitory activity against BTK(C481S) enzyme (33P-ATP filter binding); format: biochemical; settings: class symbols; read-out: IC50 BTK(C48IS)
Procedure: as §1

Chain of BTK(C481S) (Q06187 whole entry C481S): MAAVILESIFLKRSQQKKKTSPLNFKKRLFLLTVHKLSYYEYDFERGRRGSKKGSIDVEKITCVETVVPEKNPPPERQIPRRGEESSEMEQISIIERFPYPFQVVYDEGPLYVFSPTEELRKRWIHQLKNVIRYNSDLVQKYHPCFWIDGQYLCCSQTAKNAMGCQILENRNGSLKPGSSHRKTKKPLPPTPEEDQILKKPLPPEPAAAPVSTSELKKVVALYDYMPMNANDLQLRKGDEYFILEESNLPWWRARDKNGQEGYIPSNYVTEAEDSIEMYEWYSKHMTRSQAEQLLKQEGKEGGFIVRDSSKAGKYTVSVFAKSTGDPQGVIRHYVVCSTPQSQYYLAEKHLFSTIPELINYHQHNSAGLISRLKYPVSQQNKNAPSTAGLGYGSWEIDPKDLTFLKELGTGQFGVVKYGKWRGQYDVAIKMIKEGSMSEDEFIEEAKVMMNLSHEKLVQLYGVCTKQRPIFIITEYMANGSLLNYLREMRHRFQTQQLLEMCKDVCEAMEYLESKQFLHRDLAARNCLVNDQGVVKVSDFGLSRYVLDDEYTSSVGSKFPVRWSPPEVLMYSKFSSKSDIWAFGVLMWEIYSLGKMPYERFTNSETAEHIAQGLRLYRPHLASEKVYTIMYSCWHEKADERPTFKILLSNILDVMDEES
Chain of BTK(wt) (Q06187 whole entry): as the sequence (Q06187 whole entry C481S) above, with S481C counted along it

IC50 [1]	IC50 [2]	SMILES
1 to 10 nM	0.1 to 1 nM	Nc1ncnc2c1n(-c1ccc(C(=O)Nc3cc(C(F)(F)F)ccn3)cc1)c(=O)n2C12CCC(NC(=O)CN3CCOCC3)(CC1)C2 [Compound C-7-2, 4-(6-amino-9-(4-(2-morpholinoacetamido)bicyclo[2.2.1]heptan-1-yl)-8-oxo-8,9-dihydro-7H-purin-7-yl)-N-(4-(trifluoromethyl)pyridin-2-yl)benzamide]
10 to 50 nM	1 to 10 nM	Nc1nccn2c(C34CCC(NC(=O)c5ccccc5)(CC3)C4)nc(-c3ccc(C(=O)Nc4cc(C(F)(F)F)ccn4)cc3)c12 [Compound A-10-17, 4-(8-amino-3-(4-benzamidobicyclo[2.2.1]heptan-1-yl)imidazo[1,5-a]pyrazin-1-yl)-N-(4-(trifluoromethyl)pyridin-2-yl)benzamide]
1 to 10 nM	≤ 0.1 nM	COCCC(=O)NC12CCC(c3nc(-c4ccc(C(=O)Nc5cc(C(F)(F)F)ccn5)cc4)c4c(N)nccn34)(CC1)C2 [Compound A-10-8, 4-(8-amino-3-(4-(3-methoxypropanamido)bicyclo[2.2.1]heptan-1-yl)imidazo[1,5-a]pyrazin-1-yl)-N-(4-(trifluoromethyl)pyridin-2-yl)benzamide]
1 to 10 nM	1 to 10 nM	Nc1nccn2c(C34CCC(NC(=O)c5nccs5)(CC3)C4)nc(-c3ccc(C(=O)Nc4cc(C(F)(F)F)ccn4)cc3)c12 [Compound A-10-22, N-(4-(8-amino-1-(4-((4-(trifluoromethyl)pyridin-2-yl)carbamoyl)phenyl)imidazo[1,5-a]pyrazin-3-yl)bicyclo[2.2.1]heptan-1-yl)thiazole-2-carboxamide]
1 to 10 nM	0.1 to 1 nM	CC#CC(=O)NC12CCC(c3nc(-c4ccc(C(=O)Nc5cc(F)ccn5)cc4)c4c(N)nccn34)(CC1)C2 [Compound A-7-2, 4-(8-amino-3-(4-(but-2-ynamido)bicyclo[2.2.1]heptan-1-yl)imidazo[1,5-a]pyrazin-1-yl)-N-(4-fluoropyridin-2-yl)benzamide]
1 to 10 nM	1 to 10 nM	CC#CC(=O)NC12CCC(n3c(=O)n(-c4ccc(C(=O)Nc5cc(C(F)(F)F)ccn5)cc4)c4c(N)ncnc43)(CC1)C2 [Compound C-7-1, 4-(6-amino-9-(4-(but-2-ynamido)bicyclo[2.2.1]heptan-1-yl)-8-oxo-8,9-dihydro-7H-purin-7-yl)-N-(4-(trifluoromethyl)pyridin-2-yl)benzamide]
1 to 10 nM	0.1 to 1 nM	COCC(=O)NC12CCC(c3nc(-c4ccc(C(=O)Nc5cc(C(F)(F)F)ccn5)cc4)c4c(N)nccn34)(CC1)C2 [Compound A-10-7, 4-(8-amino-3-(4-(2-methoxyacetamido)bicyclo[2.2.1]heptan-1-yl)imidazo[1,5-a]pyrazin-1-yl)-N-(4-(trifluoromethyl)pyridin-2-yl)benzamide]
1 to 10 nM	0.1 to 1 nM	CC(C#N)C(=O)NC12CCC(c3nc(-c4ccc(C(=O)Nc5cc(C(F)(F)F)ccn5)cc4)c4c(N)nccn34)(CC1)C2 (stereo not shown) [Compound A-10-14, 4-(8-amino-3-(4-(2-cyanopropanamido)bicyclo[2.2.1]heptan-1-yl)imidazo[1,5-a]pyrazin-1-yl)-N-(4-(trifluoromethyl)pyridin-2-yl)benzamide]
1 to 10 nM	≤ 0.1 nM	N#CCC(=O)NC12CCC(c3nc(-c4ccc(C(=O)Nc5cc(C(F)(F)F)ccn5)cc4)c4c(N)nccn34)(CC1)C2 [Compound A-10-13, 4-(8-amino-3-(4-(2-cyanoacetamido)bicyclo[2.2.1]heptan-1-yl)imidazo[1,5-a]pyrazin-1-yl)-N-(4-(trifluoromethyl)pyridin-2-yl)benzamide]
1 to 10 nM	1 to 10 nM	COCCC(=O)NC12CCC(n3cc(-c4ccc(C(=O)Nc5cc(C(F)(F)F)ccn5)cc4)c4c(N)ncnc43)(CC1)C2 [Compound B-6-3, 4-(4-amino-7-(4-(3-methoxypropanamido)bicyclo[2.2.1]heptan-1-yl)-7H-pyrrolo[2,3-d]pyrimidin-5-yl)-N-(4-(trifluoromethyl)pyridin-2-yl)benzamide]
1 to 10 nM	1 to 10 nM	CC1(C(=O)NC23CCC(c4nc(-c5ccc(Oc6ccccc6)cc5)c5c(N)nccn45)(CC2)C3)COC1 [Compound A-13-3, N-(4-(8-amino-1-(4-phenoxyphenyl)imidazo[1,5-a]pyrazin-3-yl)bicyclo[2.2.1]heptan-1-yl)-3-methyloxetane-3-carboxamide]
10 to 50 nM	1 to 10 nM	Nc1nccn2c(C34CCC(NC(=O)c5cccnc5)(CC3)C4)nc(-c3ccc(C(=O)Nc4cc(C(F)(F)F)ccn4)cc3)c12 [Compound A-10-19, N-(4-(8-amino-1-(4-((4-(trifluoromethyl)pyridin-2-yl)carbamoyl)phenyl)imidazo[1,5-a]pyrazin-3-yl)bicyclo[2.2.1]heptan-1-yl)nicotinamide]
10 to 50 nM	1 to 10 nM	Nc1nccn2c(C34CCC(NC(=O)c5ccccn5)(CC3)C4)nc(-c3ccc(C(=O)Nc4cc(C(F)(F)F)ccn4)cc3)c12 [Compound A-10-18, N-(4-(8-amino-1-(4-((4-(trifluoromethyl)pyridin-2-yl)carbamoyl)phenyl)imidazo[1,5-a]pyrazin-3-yl)bicyclo[2.2.1]heptan-1-yl)picolinamide]
1 to 10 nM	0.1 to 1 nM	COCCC(=O)NC12CCC(c3nc(-c4ccc(Oc5ccccc5)cc4)c4c(N)nccn34)(CC1)C2 [Compound A-13-2, N-(4-(8-amino-1-(4-phenoxyphenyl)imidazo[1,5-a]pyrazin-3-yl)bicyclo[2.2.1]heptan-1-yl)-3-methoxypropanamide]
1 to 10 nM	0.1 to 1 nM	C=CC(=O)NC12CCC(c3nc(-c4ccc(C(=O)Nc5cc(C(F)(F)F)ccn5)cc4)c4c(N)nccn34)(CC1)C2 [Compound A-10-3, 4-(3-(4-acrylamidobicyclo[2.2.1]heptan-1-yl)-8-aminoimidazo[1,5-a]pyrazin-1-yl)-N-(4-(trifluoromethyl)pyridin-2-yl)benzamide]
1 to 10 nM	1 to 10 nM	Nc1ncnc2c1c(-c1ccc(C(=O)Nc3cc(C(F)(F)F)ccn3)cc1)cn2C12CCC(NC(=O)CN3CCOCC3)(CC1)C2 [Compound B-6-5, 4-(4-amino-7-(4-(2-morpholinoacetamido)bicyclo[2.2.1]heptan-1-yl)-7H-pyrrolo[2,3-d]pyrimidin-5-yl)-N-(4-(trifluoromethyl)pyridin-2-yl)benzamide]
1 to 10 nM	1 to 10 nM	CC#CC(=O)NC12CCC(n3cc(-c4ccc(C(=O)Nc5cc(C(F)(F)F)ccn5)cc4)c4c(N)ncnc43)(CC1)C2 [Compound B-6-1, 4-(4-amino-7-(4-(but-2-ynamido)bicyclo[2.2.1]heptan-1-yl)-7H-pyrrolo[2,3-d]pyrimidin-5-yl)-N-(4-(trifluoromethyl)pyridin-2-yl)benzamide]
1 to 10 nM	0.1 to 1 nM	Nc1nccn2c(C34CCC(NC(=O)C5CCCO5)(CC3)C4)nc(-c3ccc(C(=O)Nc4cc(C(F)(F)F)ccn4)cc3)c12 (stereo not shown) [Compound A-10-11, N-(4-(8-amino-1-(4-((4-(trifluoromethyl)pyridin-2-yl)carbamoyl)phenyl)imidazo[1,5-a]pyrazin-3-yl)bicyclo[2.2.1]heptan-1-yl)tetrahydrofuran-2-carboxamide]
1 to 10 nM	1 to 10 nM	COCCC(=O)NC12CCC(c3nc(-c4ccc(CNC(=O)c5cc(F)ccc5OC)cc4)c4c(N)nccn34)(CC1)C2 [Compound A-16-2, N-(4-(8-amino-3-(4-(3-methoxypropanamido)bicyclo[2.2.1]heptan-1-yl)imidazo[1,5-a]pyrazin-1-yl)benzyl)-5-fluoro-2-methoxybenzamide]
10 to 50 nM	1 to 10 nM	Nc1nccn2c(C34CCC(NC(=O)CN5CCOCC5)(CC3)C4)nc(-c3ccc(Oc4ccccc4)cc3)c12 [Compound A-13-4, N-(4-(8-amino-1-(4-phenoxyphenyl)imidazo[1,5-a]pyrazin-3-yl)bicyclo[2.2.1]heptan-1-yl)-2-morpholinoacetamide]
1 to 10 nM	1 to 10 nM	Nc1nccn2c(C34CCC(NC(=O)c5ccco5)(CC3)C4)nc(-c3ccc(C(=O)Nc4cc(C(F)(F)F)ccn4)cc3)c12 [Compound A-10-21, N-(4-(8-amino-1-(4-((4-(trifluoromethyl)pyridin-2-yl)carbamoyl)phenyl)imidazo[1,5-a]pyrazin-3-yl)bicyclo[2.2.1]heptan-1-yl)furan-2-carboxamide]
1 to 10 nM	≤ 0.1 nM	CC(C)(O)C(=O)NC12CCC(c3nc(-c4ccc(C(=O)Nc5cc(C(F)(F)F)ccn5)cc4)c4c(N)nccn34)(CC1)C2 [Compound A-10-6, 4-(8-amino-3-(4-(2-hydroxy-2-methylpropanamido)bicyclo[2.2.1]heptan-1-yl)imidazo[1,5-a]pyrazin-1-yl)-N-(4-(trifluoromethyl)pyridin-2-yl)benzamide]
1 to 10 nM	1 to 10 nM	CC1(C(=O)NC23CCC(n4cc(-c5ccc(C(=O)Nc6cc(C(F)(F)F)ccn6)cc5)c5c(N)ncnc54)(CC2)C3)COC1 [Compound B-6-4, N-(4-(4-amino-5-(4-((4-(trifluoromethyl)pyridin-2-yl)carbamoyl)phenyl)-7H-pyrrolo[2,3-d]pyrimidin-7-yl)bicyclo[2.2.1]heptan-1-yl)-3-methyloxetane-3-carboxamide]
